# Measurements taken from patent US6831199B1, “Pyrimidine compounds and derivatives thereof” (G. D. Searle & Co., priority 1995, dated 2004).
# pIC50: −log10 of the molar value. Where a name gives a salt, the structure may show the parent alone. Read-outs that look alike come from different tables or passages of the source.
# Experiments:
# [1] = target: T1, Human vitronectin receptor (αvβ3) (Homo sapiens, UniProt P05106+P06756); assay: Vitronectin adhesion assay (solid phase receptor assay, competition with biotinylated vitronectin); type: binding; settings: read-out: AvB3 IC50
# T1 construct: Human vitronectin receptor (αvβ3) was purified from human placenta; from tissue; host or cells: human placenta
# How it was run: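 Purified human αvβ3 coated overnight at 4 °C in TBS with 1.0 mM Ca++, Mg++, Mn++, pH 7.4; compounds (top final 1.0×10^−4 M) competed with 1 nM biotinylated vitronectin for 2 h at room temperature. Bound ligand detected by HRP anti-biotin/OPD at A450; values normalized to no-competitor controls, four-parameter curve fit.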
# platelet rich plasma = assay: Human platelet rich plasma assay (ADP induced platelet aggregation); type: cell-based; settings: read-out: Human PRP
# How it was run: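 Citrated platelet-rich plasma from aspirin-free healthy human donors was stirred at 37 °C and preincubated with compound for 1 min. Aggregation was then triggered with ADP (added as a 200 uM solution) and recorded photometrically for 3 min. Dose–response curves were built from % inhibition of the maximal saline-control response.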
# [2] = target: T2, Human fibrinogen receptor (αIIbβ3) (Homo sapiens, UniProt P05106+P08514); assay: Purified IIb/IIIa receptor assay (solid phase receptor assay, competition with biotinylated vitronectin); type: binding; settings: read-out: IIb/IIIa IC50
# T2 construct: Human fibrinogen receptor (αIIbβ3) was purified from outdated platelets; from tissue; host or cells: outdated human platelets
# How it was run: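 Competition format: 1 nM biotinylated vitronectin plus test compound (highest 1.0×10^−4 M), 2 h at room temperature on wells coated with platelet-derived αIIbβ3. Buffer was TBS containing 1.0 mM Ca, Mg, Mn, pH 7.4. HRP anti-biotin readout at 450 nm; normalized to maximum binding, four-parameter curve fit.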
# [3] = Homo sapiens, Platelet, ADP induced platelet aggregation in human platelet rich plasma
Compound,pIC50 [1],pIC50 (platelet rich plasma; [3]),pIC50 [2],pIC50 (platelet rich plasma; ADP induced platelet aggregation in human platelet rich plasma),"pIC50 (platelet rich plasma; Homo sapiens, Platelet)"
"N=C(N)Nc1cccc(C(=O)NCC(=O)NC(CC(=O)O)CC(=O)O)c1 [Example 53, 3-[[2-[[[3-[(aminoiminomethyl)amino]phenyl]carbonyl]amino]acetyl]amino]pentanedioic acid, trifluoroacetate salt]",7.26,< 3.70,6.03,,
"N=C(N)Nc1cc(C(=O)NCC(=O)NC(CC(=O)O)c2cc(C(F)(F)F)cc(C(F)(F)F)c2)cc(C(F)(F)F)c1 (racemic) [Example 39, (±)β-[[(2-[[[3-[(aminoiminomethyl)amino]-5-(trifluoromethyl)phenyl]carbonyl]amino]acetyl]amino]-3,5-bis(trifluoromethyl)benzenepropanoic acid, trifluoroacetate salt]",7.91,< 4.70,5.81,,
"N=C(N)Nc1cccc(C(=O)NCC(=O)NC(CC(=O)O)c2cccc3ccccc23)c1 (racemic) [Example 41, (±)β-[[2-[[[3-[(aminoiminomethyl)amino]phenyl]carbonyl]amino]acetyl]amino]naphthalene-1-propanoic acid, trifluoroacetate salt]",7.92,< 3.70,6.08,,
"NC(=S)Nc1cccc(C(=O)NCC(=O)NC(CC(=O)O)c2ccccc2)c1 (stereo not drawn) [Example 117, β-[[2-[[[3-[(aminothioxomethyl)amino]phenyl]carbonyl]amino]acetyl]amino]benzenepropanoic acid]",7.22,< 3.70,4.70,,
3S-[[2-[[[3-[(aminoiminomethyl)amino]phenyl]carbonyl]amino]acetyl]amino]-4-hydroxybutanoic acid [Example 86],8.06,,6.61,< 3.70,
"O=C(O)CC(NC(=O)CNC(=O)c1cccc(NC(=O)Nc2ccccc2)c1)c1ccc2c(c1)OCO2 (stereo not drawn) [Example 124, β-[[2-[[[3-3-[[(phenylamino]carbonyl]amino]phenyl]carbonyl]amino]acetyl]amino]-1,3-benzodioxole-5-propanoic acid]",7.66,< 4.70,6.50,,
"COC(=O)CC(CC(=O)O)NC(=O)CNC(=O)c1cccc(NC(=N)N)c1 (racemic) [Example 54, (±)hydrogen methyl 3-[[2-[[[3-[(aminoiminomethyl)amino]phenyl]carbonyl]amino]acetyl]amino]pentanedioate, trifluoroacetate salt]",7.97,< 3.70,6.76,,
"O=C(O)CC(NC(=O)CNC(=O)c1cccc(NC(=O)NCc2ccccc2)c1)c1ccc2c(c1)OCO2 (stereo not drawn) [Example 122, β-[[2-[[[3-[[[(phenylmethyl)amino]carbonyl]amino]phenyl]carbonyl]amino]acetyl]amino]-1,3-benzodioxole-5-propanoic acid]",9.10,,6.38,,< 4.70
"N=C(N)Nc1cccc(C(=O)NCC(=O)NC(CC(=O)O)c2ccc3c(c2)OCCO3)c1 (stereo not drawn) [Example 95, β-[[(2-[[[3-[(aminoiminomethyl)amino]phenyl]carbonyl]amino]acetyl]amino]-1,4-benzodioxin-6-propanoic acid, trifluoroacetate salt]",8.84,< 3.70,7.60,,
"N=C(N)Nc1cccc(C(=O)NCC(=O)NC(CC(=O)O)c2ccccc2O)c1 (racemic) [Example 87, (±)sodium β-[[2-[[[3-[(aminoiminomethyl)amino]phenyl]carbonyl]amino]acetyl]amino]-2-hydroxybenzenepropanoate, sodium salt, trifluoroacetate salt]",8.20,< 3.70,6.14,,
"CN(CC(=O)NC(CC(=O)O)c1cccnc1)C(=O)c1cccc(NC(=N)N)c1 (racemic) [Example 80, (±)β-[[2-[[[3-[(aminoiminomethyl)amino]phenyl]carbonyl]methylamino]acetyl]amino]pyridine-3-propanoic acid, bis(trifluoroacetate)salt]",8.02,4.52,8.36,,
"C#C[C@H](CC(=O)O)NC(=O)CNC(=O)c1cccc(NC(N)=O)c1 [Example 40, 3S-[[2-[[[3-(aminocarbonylamino)phenyl]carbonyl]amino]acetyl]amino]-4-pentynoic acid]",7.99,< 3.70,6.08,,
"N=C(N)Nc1cccc(C(=O)NCC(=O)NC(CC(=O)O)c2ccco2)c1 (racemic) [Example 55, (±)β-[[2-[[[3-[(aminoiminomethyl)amino]phenyl]carbonyl]amino]acetyl]amino]furan-2-propanoic acid, trifluoroacetate salt]",8.32,< 3.70,6.93,,

# Now from value to compound, other results behind:
pIC50 [1],pIC50 (platelet rich plasma; [3]),pIC50 [2],Compound,pIC50 (platelet rich plasma; ADP induced platelet aggregation in human platelet rich plasma),"pIC50 (platelet rich plasma; Homo sapiens, Platelet)"
7.26,< 4.70,4.85,"N#C/N=C(\NCc1ccccc1)Nc1cccc(C(=O)NCC(=O)NC(CC(=O)O)c2ccccc2)c1 (stereo not drawn) [Example 136, β-[[2-[[[3-[[(cyanoimino)[(phenylmethyl)amino]methyl]amino]phenyl]carbonyl]amino]acetyl]amino]benzenepropanoic acid]",,
7.43,< 3.70,5.24,"N#C/N=C(\N)Nc1cccc(C(=O)NCC(=O)NC(CC(=O)O)c2ccccc2)c1 (stereo not drawn) [Example 138, β-[[2-[[[3-[[amino(cyanoimino)methyl]amino]phenyl]carbonyl]amino]acetyl]amino]benzenepropanoic acid]",,
9.29,< 3.70,6.34,"O=C(O)CC(NC(=O)CNC(=O)c1cccc(NC(=O)NCc2cccnc2)c1)c1cccnc1 (stereo not drawn) [Example 127, β-[[2-[[[3-[[[3-pyridinylmethyl)amino]carbonyl]amino]phenyl]carbonyl]amino]acetyl]amino]pyridine-3-propanoic acid, bis trifluoroacetate salt]",,
7.72,< 3.70,4.92,"O=C(O)CC(NC(=O)CNC(=O)c1cccc(NC2=NCCCCC2)c1)c1cc(Cl)cc(Cl)c1O (racemic) [Example 232, (±)3,5-dichloro-2-hydroxy-β-[[2-[[[3-[(3,4,5,6-tetrahydro-2H-azepin-7-yl)amino]phenyl]carbonyl]amino]acetyl]amino]benzenepropanoic acid, trifluoroacetate salt, monohydrate]",,
8.69,< 3.70,6.95,"COc1ccc(C(CC(=O)O)NC(=O)CNC(=O)c2cccc(NC(=N)N)c2)c(O)c1 (racemic) [Example 222, (±)β-[[2-[[[3-[(aminoiminomethyl)amino]phenyl]carbonyl]amino]acetyl]amino]-2-hydroxy-4-methoxybenzenepropanoic acid]",,
8.42,< 4.70,5.75,"O=C(O)CC(NC(=O)CNC(=O)c1cccc(NC(=O)NCc2cccc3ccccc23)c1)c1cccnc1 (stereo not drawn) [Example 131, β-[[2-[[[3-[[[(1-naphthalenylmethyl)amino]carbonyl]amino]phenyl]carbonyl]amino]acetyl]amino]pyridine-3-propanoic acid, trifluoroacetate salt]",,
7.85,< 3.70,5.58,"N=C(N)Nc1cccc(C(=O)NCC(=O)NC(CC(=O)O)c2cc(Br)cc(Br)c2O)c1 (racemic) [Example 227, (±)β-[[2-[[[3-[(aminoiminomethyl)amino]phenyl]carbonyl]amino]acetyl]amino]-3,5-dibromo-2-hydroxybenzenepropanoic acid, trifluoroacetate salt, monohydrate]",,
8.34,< 3.70,5.87,"NC(=O)/N=C(/N)Nc1cccc(C(=O)NCC(=O)NC(CC(=O)O)c2cc(Cl)cc(Cl)c2)c1 (stereo not drawn) [Example 162, β-[[(2-[[[3-[[amino(aminocarbonyl)imino]methyl]amino]phenyl]carbonyl]amino]acetyl]amino]-3,5-dichlorobenzenepropanoic acid, trifluoroacetate salt]",,
7.79,< 3.70,5.19,"CN/C(=N\C#N)Nc1cccc(C(=O)NCC(=O)NC(CC(=O)O)c2ccccc2)c1 (stereo not drawn) [Example 137, β-[[2-[[[3-[[(cyanoimino)(methylamino)methyl]amino]phenyl]carbonyl]amino]acetyl]amino]benzenepropanoic acid]",,
8.51,< 3.70,6.90,"C#C[C@H](CC(=O)O)NC(=O)CNC(=O)c1cccc(N/C(=N/C#N)NC)c1 [Example 141, 3S-[[2-[[[3-[[(cyanoimino)(methylamino)methyl]amino]phenyl]carbonyl]amino]acetyl]amino]-4-pentynoic acid]",,
8.30,< 3.70,7.09,"N=C(N)Nc1ccc(Cl)c(C(=O)NCC(=O)NC(CC(=O)O)c2ccccc2)c1 (stereo not drawn) [Example 155, β-[[2-[[[5-[(aminoiminomethyl)amino]-2-chlorophenyl]carbonyl]amino]acetyl]amino]benzenepropanoic acid, trifluoroacete salt]",,
